Columns and labels:
[1] = target: T1, MAT2A homodimer (Homo sapiens, UniProt P31153); experiment: Biochemical assay: inhibition of recombinant MAT2A homodimer (phosphate release, PiColorLock Gold); conditions: MAT2A IC50 score; read-out: Enzyme Inhibition
T1 construct: inferred from Ni sepharose purification and imidazole elution; made in house; host or cells: Sf9 insect cells, recombinant baculovirus (Bac to Bac, pFASTBAC1 vector)
Description: Mat2A protein was expressed by recombinant baculovirus in SF9 infected cells using the Bac to Bac system cloned into the pFASTBAC1 vector (Invitrogen, Carlsbad, Calif.). Recombinant MAT2A was isolated from the cell lysate of 150 g of infected cells using HP Ni sepharose column chromatography. Recombinant MAT2A homodimer was eluted with 250 and 500 mM imidazole, and fractions containing MAT2A were identified by sodium dodecyl sulfate polyacrylamide gel electrophoresis and pooled.
For determination of the inhibitory potency of compounds against the MAT2A homodimer, protein was diluted to 4 μg/mL in assay buffer (50 mM Tris, pH 8.0, 50 mM KCl, 15 mM MgCl2, 0.3 mM EDTA, 0.005% [w/v] bovine serum albumin [BSA]). Test compound was prepared in 100% dimethyl sulfoxide (DMSO) at 50× the desired final concentration. A 1 μL volume of compound dilution was added to 40 μL of enzyme dilution and the mixture was allowed to equilibrate for 60 minutes at 25° C. The enzymatic assay was initiated by the addition of 10 μL of substrate mix (500 μM ATP, pH 7.0, 40 μM L-methionine in 1× assay buffer), and the mixture was incubated for a further 60 minutes at 25° C. The reaction was halted and the liberated phosphate released by the enzyme in stoichiometric amounts by the production of S-adenosyl methionine (SAM) was measured using the PiColorLock Gold kit (Innova Biosciences, UK). Absolute product amounts were determined by comparison to a standard curve of potassium phosphate buffer, pH 8.0.

[2] = system: SAM in HCT116 human colon carcinoma cell line with deleted MTAP gene; experiment: Cellular assay of target engagement (SAM): SAM level by LC-MS/MS after 72 hrs; type: cell-based; conditions: HCT-116, IC50 score, read-out: Cell 72 h SAM Inhibition (MTAP −/−)
Description: Cellular Assay of Target Engagement (SAM)
Measurement of MAT2A activity in cells was made by direct quantitation of the abundance of the product of its enzymatic activity, SAM. Cancer cells were treated with candidate MAT2A inhibitors for a suitable incubation period, and the cells were then lysed using a reagent which quenched any further enzyme activity. Soluble metabolites including SAM were collected and SAM itself was directly measured from the lysate using quantitative LC-MS/MS.
A typical assay was performed using an HCT116 human colon carcinoma cell line which was genetically engineered to delete the MTAP gene (commercially available from Horizon Discovery). This cell line was utilized because it was determined that loss of the MTAP gene predicts sensitivity to MAT2A inhibitors. Cells were plated in 96-well dishes at appropriate cell density. Following 24 hours, cells were then treated with the candidate MAT2A inhibitor. Prior to addition to cells, the compound was first serially diluted in 100% DMSO, typically as a 3-fold serial dilution starting at 500× top dose with 10 dose points including DMSO only control. Compound was then transferred to a working stock plate in cell culture media by adding 5 μL of compound in DMSO to 495 μL of cell culture media. This working stock was then added to cells via a further 5-fold dilution, by adding 25 μL of working stock to 100 μL of cells in culture media. Following compound addition, cells were incubated at 37° C./5% CO2 for 72 hrs.
To quantitate SAM levels following compound treatment, cells were gently washed once in ammonium carbonate buffer (75 mM at pH 7.4), placed on dry ice, and lysed with metabolite extraction buffer (80% cold methanol and 20% water (v/v) with acetic acid at 1M final concentration with 200 ng/mL deuterated d3-SAM as internal control). Following centrifugation at 4° C. at 3,200 rpm for 30 minutes, the supernatant was collected and stored at −80° C. until analysis by Liquid Chromatography with tandem Mass Spectrometry (LC-MS/MS). LC-MS/MS analysis was performed using an API6500 Mass Spectrometer (Sciex, Framingham, Mass., USA) operating in positive ion spray mode and equipped with a Waters UPLC Acquity (Waters, Milford, Mass., USA) BEH Amide column. Multiple Reaction Monitoring data was acquired for SAM and the d3-SAM standard, using a mass transition pair at m/z 399.2→250.1 and 402.2→250.1, respectively. In a typical LC-MS/MS analysis, the initial flow rate was 0.5 ml/min of 25% mobile phase A (acetonitrile and water at 5:95 (v/v) with 1% formic acid and 10 mM ammonium acetate) and 75% mobile phase B (acetonitrile and water at 95:5 (v/v) with 1% formic acid and 10 mM ammonium acetate), 0.2-0.5 minutes with 75%-35% mobile phase B, 25%-65% mobile phase A, at 0.5 min 65% mobile phase A and 35% mobile phase B, 1.0-1.1 minutes with 35%-75% mobile phase B, 65%-25% mobile phase A, at 1.1 min 25% mobile phase A and 75% mobile phase B with a total run time of 1.5 minutes.

[3] = system: HCT116 MTAP +/+; experiment: Inhibition of cellular proliferation, 4 days, Cell Titer Glo, HCT116 MTAP+/+; type: cell-based; conditions: Homo sapiens, HCT-116, 96 h, IC50 score, read-out: 4 Day Relative Growth Inhibition (MTAP +/+)
Description: (§1) Assay for Inhibition of Cellular Proliferation
(§2) Test compound impact on cancer cell growth was assessed by treating cancer cells with compound for 4 days and then measuring proliferation using an ATP-based cell proliferation readout (Cell Titer Glo, Promega Corporation).
(§3) In a typical assay an isogenic pair of HCT116 human colon carcinoma cell lines which vary only in MTAP deletion status (HCT116 MTAP +/+ and HCT116 MTAP−/−) were plated in 96-well dishes at appropriate cell density. Following 24 hours, cells were then treated with the candidate MAT2A inhibitor. Prior to addition to cells, the compound was first serially diluted in 100% DMSO, typically as a 3-fold serial dilution starting at 500× top dose with 10 dose points including DMSO only control. Compound was then transferred to a working stock plate in cell culture media by adding 5 μL of compound in DMSO to 495 μL of cell culture media. This working stock was then added to cells via a further 5-fold dilution, by adding 25 μL of working stock to 100 μL of cells in culture media. Following compound addition, cells were incubated at 37° C./5% C02 for 4 days.
(§4) To measure inhibition of cellular proliferation, cells were allowed to equilibrate to room temperature for 30 minutes, and were then treated with 125 μL of Cell Titer Glo reagent. The plate was then covered with aluminum foil and shaken for 15 minutes to ensure complete mixing and full cell lysis. Luminescent signal was then measured using a plate-based luminometer Veritas version 1.9.2 using ATP standard curve to confirm assay reproducibility from run to run. This luminescence measure was converted to a proliferation index by subtracting from each data point the ATP luminescence signal measured from a bank (no cells) well and dividing by the ATP luminescence signal measured in 0.2% DMSO control well adjusted for signal in blank well. Compound activity was then represented as a percentage change in proliferation relative to a within-plate DMSO control against log 10 of compound concentration in molar (M) units.

[4] = system: HCT116 MTAP-/-; experiment: Inhibition of cellular proliferation, 4 days, Cell Titer Glo, HCT116 MTAP-/-; type: cell-based; conditions: Homo sapiens, HCT-116, 96 h, IC50 score, read-out: 4 Day Relative Growth Inhibition (MTAP −/−)
Description: as §1, §2, §3, §4

T1 sequence (P31153 whole entry): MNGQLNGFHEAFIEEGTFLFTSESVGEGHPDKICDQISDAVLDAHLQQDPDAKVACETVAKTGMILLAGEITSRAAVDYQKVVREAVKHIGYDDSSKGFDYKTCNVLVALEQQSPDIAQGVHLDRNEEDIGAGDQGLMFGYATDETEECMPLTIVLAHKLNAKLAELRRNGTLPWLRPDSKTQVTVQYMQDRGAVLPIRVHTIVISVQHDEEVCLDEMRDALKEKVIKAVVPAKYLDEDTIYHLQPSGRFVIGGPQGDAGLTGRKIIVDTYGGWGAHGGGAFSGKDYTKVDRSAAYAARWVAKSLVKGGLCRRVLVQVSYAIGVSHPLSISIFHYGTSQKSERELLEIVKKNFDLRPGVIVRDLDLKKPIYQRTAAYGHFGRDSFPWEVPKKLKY

| SMILES | IC50 [1] | IC50 [2] | IC50 [3] | IC50 [4] |
| --- | --- | --- | --- | --- |
| CNc1ccc(-n2c(=O)c(-c3ccc4nn(C)cc4c3)cc3ccc(OCC(F)F)nc32)cn1 [Example 147] | < 100 nM | < 100 nM | 100 to 1000 nM | < 100 nM |
| [2H]C([2H])([2H])Oc1ccc(-n2c(=O)c(-c3ccc4nn(C)cc4c3)cc3ccc(OCC)nc32)cc1 [Example 148] | < 100 nM | < 100 nM | 100 to 1000 nM | < 100 nM |
| [2H]C([2H])([2H])Oc1ccc(-n2c(=O)c(-c3ccc4nn(C)cc4c3)cc3ccc(OCC(F)F)nc32)cc1 [Example 149] | < 100 nM | < 100 nM | 100 to 1000 nM | < 100 nM |
| CCOc1ccc2cc(-c3ccc4nn(C)cc4c3)c(=O)n(-c3ccc4scnc4c3)c2n1 [Example 150] | < 100 nM | < 100 nM | ≥ 1000 nM | < 100 nM |
| CCOc1ccc2cc(-c3ccc4nn(C)cc4c3)c(=O)n(-c3ccc(C(F)(F)F)nc3)c2n1 [Example 151, 7-ethoxy-3-(2-methyl-2H-indazol-5-yl)-1-(6-(trifluoromethyl)pyridin-3-yl)-1,8-naphthyridin-2(1H)-one] | < 100 nM | < 100 nM | ≥ 1000 nM | < 100 nM |
| CCOc1ccc2cc(-c3ccc4nn(C)cc4c3)c(=O)n(-c3ccc(OC(F)(F)F)nc3)c2n1 [Example 152] | < 100 nM | < 100 nM | ≥ 1000 nM | < 100 nM |
| CCOc1ccc2cc(-c3ccc4nn(C)cc4c3)c(=O)n(-c3ccc(OC(F)(F)F)cc3)c2n1 [Example 153] | < 100 nM | < 100 nM | ≥ 1000 nM | < 100 nM |
| CCOc1ccc2cc(-c3ccc4nn(C)cc4c3)c(=O)n(-c3ccc(OC(F)F)nc3)c2n1 [Example 155] | < 100 nM | < 100 nM | ≥ 1000 nM | < 100 nM |
| CCOc1ccc2cc(-c3ccc4nn(C)cc4c3)c(=O)n(-c3ccc(OC)nc3)c2n1 [Example 157] | < 100 nM | < 100 nM | 100 to 1000 nM | < 100 nM |
| CCOc1ccc2cc(-c3ccc(OC)cc3)c(=O)n(-c3ccc(OC(F)F)nc3)c2n1 [Example 158] | < 100 nM | 100 to 1000 nM | ≥ 1000 nM | 100 to 1000 nM |
| CCOc1ccc2cc(-c3ccc(OC)cc3)c(=O)n(-c3ccc(NC)nc3)c2n1 [Example 159] | < 100 nM | < 100 nM | ≥ 1000 nM | 100 to 1000 nM |
| CCOc1ccc2cc(-c3ccc4ncccc4c3)c(=O)n(-c3ccc(Cl)cc3)c2n1 [Example 160] | < 100 nM | < 100 nM | ≥ 1000 nM | 100 to 1000 nM |
| CCOc1ccc2cc(-c3ccc4nn(C)cc4c3)c(=O)n(-c3ccc(C4CC4)nc3)c2n1 [Example 161] | < 100 nM | < 100 nM | 100 to 1000 nM | < 100 nM |
| CCOc1ccc2cc(-c3ccc(OC)cc3)c(=O)n(-c3ccc(C4CC4)nc3)c2n1 [Example 162] | < 100 nM | 100 to 1000 nM | ≥ 1000 nM | 100 to 1000 nM |

Other lines, results leading:

| IC50 [1] | IC50 [2] | IC50 [3] | IC50 [4] | SMILES |
| --- | --- | --- | --- | --- |
| < 100 nM | 100 to 1000 nM | ≥ 1000 nM | 100 to 1000 nM | CCOc1ccc2cc(-c3ccc(OC)cc3)c(=O)n(-c3ccc(C4CC4)cc3)c2n1 [Example 163] |
| < 100 nM | < 100 nM | ≥ 1000 nM | < 100 nM | CCOc1cc(C)c2cc(-c3ccc4nn(C)cc4c3)c(=O)n(-c3ccc(Cl)cc3)c2n1 [Example 164] |
| < 100 nM | < 100 nM | ≥ 1000 nM | < 100 nM | CCOc1ccc2cc(-c3ccc4nn(C)cc4c3)c(=O)n(-c3ccc(C4CC4)cc3)c2n1 [Example 165] |
| < 100 nM | < 100 nM | ≥ 1000 nM | < 100 nM | Cn1cc2cc(-c3cc4ccc(OCC(F)(F)F)nc4n(-c4ccc(C5CC5)nc4)c3=O)ccc2n1 [Example 166] |
| < 100 nM | < 100 nM | ≥ 1000 nM | < 100 nM | CNc1ccc(-n2c(=O)c(-c3ccc4nn(C)cc4c3)cc3ccc(OCC(F)(F)F)nc32)cn1 [Example 167] |
| < 100 nM | < 100 nM | ≥ 1000 nM | < 100 nM | Cn1cc2cc(-c3cc4ccc(OCC(F)F)nc4n(-c4ccc(C5CC5)nc4)c3=O)ccc2n1 [Example 168] |
| < 100 nM | < 100 nM | ≥ 1000 nM | 100 to 1000 nM | Cn1cc2cc(-c3cc4ccc(OCC(F)F)nc4n(-c4ccc5scnc5c4)c3=O)ccc2n1 [Example 169] |
| < 100 nM | 100 to 1000 nM | ≥ 1000 nM | ≥ 1000 nM | COc1ccc(-n2c(=O)c(-c3ccc(OC)nc3)cc3cnc(NCC(F)(F)F)nc32)cc1 [Example 171] |
| < 100 nM | < 100 nM | ≥ 1000 nM | 100 to 1000 nM | COc1ccc(-n2c(=O)c(-c3ccc4nccn4c3)cc3cnc(NCC(F)(F)F)nc32)cc1 [Example 172] |
| < 100 nM | < 100 nM | ≥ 1000 nM | < 100 nM | COc1ccc(-n2c(=O)c(-c3ccc4c(c3)CCO4)cc3cnc(NCC(F)(F)F)nc32)cc1 [Example 173] |
| < 100 nM | < 100 nM | ≥ 1000 nM | ≥ 1000 nM | COc1ccc(-n2c(=O)c(-c3ccc4[nH]cnc4c3)cc3cnc(NCC(F)(F)F)nc32)cc1 [Example 174] |

Reference: US20220251081A1, “HETEROBICYCLIC INHIBITORS OF MAT2A AND METHODS OF USE FOR TREATING CANCER” (priority 2019, published 2022)
